Where two headings read alike, the source gives them in different places.
Legend:
[1] = system: A431-CCK2R/A431-mock xenografted BALB/c nude mice; experiment: Biodistribution blocking experiment with 1000-fold excess of non-radiolabeled peptide; format: in vivo; conditions: 4 h p.i., 1000-fold excess of non-radiolabeled peptide, n=1
Experimental: (§1) Then, after 7–11 days, when visible tumor xenografts were formed, groups of 5 mice were injected intravenously via a lateral tail vein with ~0.5 MBq of radiolabeled peptide, corresponding to 20 pmol of peptide, in a total volume of ~150 µL in PBS/0.5% BSA. Using an additional mouse per group, a blocking study was performed by co-injecting a 1000-fold molar excess of the respective peptide analog (20 nmol) together with the radiolabeled peptide. For quantification, a 1:1, 1:10 and 1:50 standard was prepared using aliquots of the injection solution mixed with PBS/0.5% BSA. Mice were euthanized by cervical dislocation 4 h after injection. Subsequently, a blood sample was collected, and different tissues were dissected. All samples, as well as the rest of the body were weighed, and the activity measured in the γ-counter together with the standard. Results were expressed as percentage of injected activity per gram of tissue (%IA/g).

[2] = as above; format: in vivo, mice; conditions: female, BALB/c nude, mouse, iv, total radioactivity, 4 h p.i., 1000-fold excess of non-radiolabeled peptide, n=1
Experimental: as §1

[3] = system: A431-CCK2R/A431-mock xenografted BALB/c nude mice; experiment: Biodistribution 4 h p.i. in A431-CCK2R/A431-mock xenografted BALB/c nude mice; format: in vivo; conditions: 4 h p.i., ~0.5 MBq, 20 pmol, n=5
Experimental: as §1

[4] = as above; format: in vivo; conditions: female, BALB/c nude, mouse, iv, 20 pmol, total radioactivity, 4 h p.i., 20 pmol; for tissue uptake at 4 h: ~0.5 MBq, n=5
Experimental: as §1

[5] = Octanol/PBS distribution coefficient (logD7.4); format: physicochemical; conditions: octanol/PBS 1/1, pH 7.4; read-out: logD (octanol/PBS)
Experimental: (§2) The stability studies with the ^177Lu-labeled peptide analogs were carried out at a concentration of 0.5 nmol peptide/mL in fresh human serum (n = 2) for up to 24 h. A mixture of 0.05 nmol/mL of the radiolabeled peptides in PBS and octanol (1/1, v/v) was used to evaluate the octanol/PBS distribution coefficient (logD7.4; n = 8). To determine the protein binding in human serum by Sephadex G-50 size-exclusion chromatography (GE Healthcare Illustra, Little Chalfont, UK), a 25 µL serum sample was used for different time points after incubation. All steps were performed according to previously published protocols.

[6] = BALB/c mice, cited from earlier work
[7] = Stability of 177Lu-labeled peptides in fresh human serum; format: in vitro ADME; conditions: 37 °C, 24 h incubation
Experimental: as §2

[8] = Protein binding in human serum by Sephadex G-50 size-exclusion chromatography; format: in vitro ADME; conditions: human serum; time point not given
Experimental: as §2

CCCC[C@@H](C(=O)N[C@@H](CC(=O)O)C(=O)N[C@@H](Cc1cccc2ccccc12)C(N)=O)N(C)C(=O)[C@H](Cc1c[nH]c2ccccc12)NC(=O)CNC(=O)[C@H](Cc1ccc(O)cc1)NC(=O)[C@H](C)NC(=O)[C@@H](CCC(=O)O)NC(=O)CN1CCN(CC(=O)O)CCN(CC(=O)O)CCN(CC(=O)O)CC1 [[^177Lu]Lu-DOTA-MGS5, metal not drawn, reference compound]
uptake in intestine, blocking [1]: 0.79 % IA/g
uptake in kidneys, blocking [1]: 2.95 % IA/g
uptake in liver, blocking [1]: 0.54 % IA/g
uptake in muscle, blocking [1]: 0.03 % IA/g
uptake in spleen, blocking [1]: 0.16 % IA/g
tissue uptake at 4 h ([2]; A431-CCK2R tumor xenograft, read-out: uptake in A431-CCK2R xenograft, blocking): 0.54 %ID/g
tissue uptake at 4 h ([2]; A431-mock tumor xenograft, read-out: uptake in A431-mock xenograft, blocking): 0.34 %ID/g
tissue uptake at 4 h ([2]; blood, read-out: uptake in blood, blocking): 0.09 %ID/g
tissue uptake at 4 h ([2]; femur, read-out: uptake in femur, blocking): 0.04 %ID/g
tissue uptake at 4 h ([2]; heart, read-out: uptake in heart, blocking): 0.08 %ID/g
tissue uptake at 4 h ([2]; lung, read-out: uptake in lung, blocking): 0.08 %ID/g
tissue uptake at 4 h ([2]; pancreas, read-out: uptake in pancreas, blocking): 0.11 %ID/g
tissue uptake at 4 h ([2]; stomach, read-out: uptake in stomach, blocking): 0.09 %ID/g
uptake in liver [3]: 1.02 ± 0.23 % IA/g
tissue uptake at 4 h ([4]; A431-CCK2R tumor xenograft, read-out: uptake in A431-CCK2R xenografts): 22.8 ± 4.67 %ID/g
tissue uptake at 4 h ([4]; A431-mock tumor xenograft, read-out: uptake in A431-mock xenografts): 0.19 ± 0.03 %ID/g
tissue uptake at 4 h ([4]; blood, read-out: uptake in blood): 0.11 ± 0.11 %ID/g
tissue uptake at 4 h ([4]; femur, read-out: uptake in femur): 0.36 ± 0.35 %ID/g
tissue uptake at 4 h ([4]; heart, read-out: uptake in heart): 0.1 ± 0.06 %ID/g
tissue uptake at 4 h ([4]; intestine, read-out: uptake in intestine): 1.02 ± 0.23 %ID/g
tissue uptake at 4 h ([4]; kidneys, read-out: uptake in kidneys): 3.45 ± 0.91 %ID/g
tissue uptake at 4 h ([4]; liver, read-out: uptake in liver): 1.02 ± 0.8 %ID/g
tissue uptake at 4 h ([4]; lung, read-out: uptake in lung): 0.17 ± 0.14 %ID/g
tissue uptake at 4 h ([4]; muscle, read-out: uptake in muscle): 0.1 ± 0.02 %ID/g
tissue uptake at 4 h ([4]; pancreas, read-out: uptake in pancreas): 1.91 ± 0.91 %ID/g
tissue uptake at 4 h ([4]; spleen, read-out: uptake in spleen): 0.27 ± 0.18 %ID/g
tissue uptake at 4 h ([4]; stomach, read-out: uptake in stomach): 6.26 ± 4.28 %ID/g
tissue to tissue ratio at 4 h ([4]; tumor / kidney, read-out: tumor-to-kidney ratio): 7
logD [5]: -2.25 ± 0.13
intact radiopeptide in blood ([6]; 10 min after intravenous injection): 86%
intact radiopeptide in blood ([6]; 30 min p.i.): 77%
intact radiopeptide in blood ([6]; 1 h after intravenous injection): 70%
intact radiopeptide in human serum [7]: 96.9 ± 0.3%
fraction unbound [8]: 0.667
